Laboratory results reported in patent publication US11059824B2, “Substituted purines as TLR7 agonists” (Primmune Therapeutics, Inc., priority 2018, dated 2021).
Values joined by “and” are separate entries in the source; they are usually repeats but may differ in a detail not shown here. Identical values can stand only once. Counter-ions that a name gives are not always drawn. Marks after values point to notes of the source that are not given here.

How the values were obtained:
[1] = molecular target: human TLR7 (Homo sapiens (Human), UniProt Q9NYK1); assay: TLR7 reporter assay (HEK293-TLR-NF-κB inducible SEAP reporter); format: cell-based; conditions: HEK293 cells stably expressing human TLR7 with NF-κB-driven SEAP reporter; 15-24 hours
Sequence of human TLR7 (Q9NYK1 27-1049): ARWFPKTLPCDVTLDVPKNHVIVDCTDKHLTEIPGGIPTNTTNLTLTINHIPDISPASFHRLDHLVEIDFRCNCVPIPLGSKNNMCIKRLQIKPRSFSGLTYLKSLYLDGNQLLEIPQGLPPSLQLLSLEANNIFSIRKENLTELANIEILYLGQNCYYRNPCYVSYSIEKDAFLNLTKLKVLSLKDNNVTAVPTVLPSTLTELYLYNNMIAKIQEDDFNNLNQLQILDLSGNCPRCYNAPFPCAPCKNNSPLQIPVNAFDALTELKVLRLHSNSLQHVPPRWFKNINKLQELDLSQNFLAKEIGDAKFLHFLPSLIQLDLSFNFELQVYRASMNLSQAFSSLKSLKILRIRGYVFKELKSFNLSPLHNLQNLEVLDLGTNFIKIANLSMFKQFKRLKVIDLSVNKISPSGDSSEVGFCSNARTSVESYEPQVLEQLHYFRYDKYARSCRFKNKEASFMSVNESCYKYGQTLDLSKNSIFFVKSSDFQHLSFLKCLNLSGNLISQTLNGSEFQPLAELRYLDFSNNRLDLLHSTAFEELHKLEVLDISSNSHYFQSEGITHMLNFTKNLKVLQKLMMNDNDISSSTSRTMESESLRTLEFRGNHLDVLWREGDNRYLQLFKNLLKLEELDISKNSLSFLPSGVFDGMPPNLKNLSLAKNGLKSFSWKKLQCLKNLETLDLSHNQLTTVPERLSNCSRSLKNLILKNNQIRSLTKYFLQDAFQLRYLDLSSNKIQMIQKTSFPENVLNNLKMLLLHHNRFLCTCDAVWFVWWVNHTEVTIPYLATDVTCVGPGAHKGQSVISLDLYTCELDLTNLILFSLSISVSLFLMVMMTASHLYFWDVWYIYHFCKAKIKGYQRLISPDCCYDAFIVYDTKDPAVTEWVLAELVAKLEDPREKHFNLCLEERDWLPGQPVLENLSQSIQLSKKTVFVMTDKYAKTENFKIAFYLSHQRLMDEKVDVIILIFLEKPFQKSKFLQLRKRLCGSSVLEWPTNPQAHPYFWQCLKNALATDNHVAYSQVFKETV
Source text: The engagement of TLRs by cognate ligands triggers downstream signaling cascades, leading to the activation of NF-κB and other transcription factors which initiate various immunomodulatory effects. The human embryonic kidney cell line, HEK293, is essentially non-responsive to TLR agonists, but ectopic expression of TLRs in these cells allows cognate agonists to activate endogenous NF-κB. Accordingly, the HEK293-TLR-NF-κB inducible reporter system is used to assay TLR agonists. HEK293 cell lines stably expressing human TLR7 or TLR8 together with an NF-κB-driven-secreted alkaline phosphatase (SEAP) reporter were invented at InvivoGen (San Diego, Calif., USA) and used to assess compounds of the present invention for TLR7 and TLR8 agonist activities. Cells were seeded at 2-5×10^4 cells/well in 96 well plates ([…]) and treated with various concentrations of compound (10 μl) for 15-24 hours. SEAP activity was determined by measuring OD at 650 nm; the media used to culture the cell lines contains the reagents required for SEAP detection. The EC50 values in Table 2 are calculated from fitting the dose response of measured SEAP activity for each compound to the following equation: Y=ymax*c^nh/(EC50^nh+c^nh)+blank where Y is the experimentally measured OD650 at concentration c of test article, blank is the observed OD650 in the absence of TLR7 agonist, ymax is the difference between the measured OD650 in the presence of either 28.5 μM resiquimod or 1.675 μM CL307 and the blank and values of EC50 and nh are determined by nonlinear least squares analysis.

[2] = system: interferon-α production in hPBMCs; assay: Induction of interferon-α production in hPBMCs; format: cell-based, human; conditions: interferon-α production from hPBMCs; for Weighted MEC: geometric mean of all individual MECs across all donors, 24 hours; for individual MEC values: per donor
Protocol: Treatment of hPBMCs with a TLR7 agonist typically induces substantial production of interferon-α as well as lesser amounts of a variety of other cytokines and chemokines. A typical experiment uses hPBMCs isolated from a healthy donor and placed in replicate cell culture wells; typically 1.0-7.5×10^6 cells are placed in each well. Test compound is added and the cells cultured for 24 hours at 37° C. in a humidified atmosphere containing 5% CO2 post-addition; untreated controls are included. Secreted interferon-α production is measured using an a multisubtype interferon-α ELISA kit like those from PBL Assay Sciences or specifically as IFNα2a as part of a panel of cytokines and chemokines using luminex methodologies. The minimal effective concentration (MEC) is the minimum concentration in a dose response curve where a significant increase in interferon-α production (generally at least 20 pg/ml) is observed above baseline. MEC values for each compound are determined for at least three donors. The weighted MEC for each compound is the geometric mean of all individual MECs across all donors. Concentrations tested typically consist of a two-fold dilution series starting at 100 μM. In the calculation of weighted MEC, any value >100 μM is arbitrarily set to 200 μM unless all MECs for a compound exceed 100 μM

| Compound | EC50 [1] | Weighted MEC [2] | individual MEC values [2] |
| --- | --- | --- | --- |
| Nc1nc2c(c(=O)[nH]1)n(CCCC(=O)O)c(=O)n2[C@@H]1O[C@H](CO)[C@H](O)[C@H]1O [Compound 20, 4-(2-Amino-9-((2R,3R,4R,5R)-3,4-dihydroxy-5-(hydroxymethyl)tetrahydrofuran-2-yl)-6,8-dioxo-1,6,8,9-tetrahydro-7H-purin-7-yl)butanoic Acid] | 79 µM | >100* μM | – |
| Nc1nc2c(c(=O)[nH]1)n(CC(F)F)c(=O)n2[C@@H]1O[C@H](CO)[C@H](O)[C@H]1O [Compound 14, 2-Amino-7-(2,2-difluoroethyl)-9-((2R,3R,4R,5R)-3,4-dihydroxy-5-(hydroxymethyl)tetrahydrofuran-2-yl)-7,9-dihydro-1H-purine-6,8-dione] | 180 µM | 100* μM | – |
| Nc1nc2c(c(=O)[nH]1)n(CC#CCO)c(=O)n2[C@@H]1O[C@H](CO)[C@H](O)[C@H]1O [Compound 11, 2-Amino-9-((2R,3R,4R,5R)-3,4-dihydroxy-5-(hydroxymethyl)tetrahydrofuran-2-yl)-7-(4-hydroxybut-2-yn-1-yl)-7,9-dihydro-1H-purine-6,8-dione] | 249 µM | 79 µM | – |
| Nc1nc2c(c(=O)[nH]1)n(CC(F)(F)F)c(=O)n2[C@@H]1O[C@H](CO)[C@H](O)[C@H]1O [Compound 13, 2-Amino-9-((2R,3R,4R,5R)-3,4-dihydroxy-5-(hydroxymethyl)tetrahydrofuran-2-yl)-7-(2,2,2-trifluoroethyl)-7,9-dihydro-1H-purine-6,8-dione] | 151 µM | 66* μM | – |
| COC(=O)/C=C/Cn1c(=O)n([C@@H]2O[C@H](CO)[C@H](O)[C@H]2O)c2nc(N)[nH]c(=O)c21 [Compound 10, Methyl (E)-4-(2-amino-9-((2R,3R,4R,5R)-3,4-dihydroxy-5-(hydroxymethyl)tetrahydrofuran-2-yl)-6,8-dioxo-1,6,8,9-tetrahydro-7H-purin-7-yl)but-2-enoate] | 248 µM | >100* μM | – |
| Nc1nc2c(c(=O)[nH]1)n(CCCCO)c(=O)n2[C@@H]1O[C@H](CO)[C@H](O)[C@H]1O [Compound 19, 2-Amino-9-((2R,3R,4R,5R)-3,4-dihydroxy-5-(hydroxymethyl)tetrahydrofuran-2-yl)-7-(4-hydroxybutyl)-7,9-dihydro-1H-purine-6,8-dione] | 491 µM | >100* μM | – |
| CC#CCn1c(=O)n([C@@H]2O[C@H](CO)[C@H](O)[C@H]2O)c2nc(N)[nH]c(=O)c21 [Compound 6, 2-Amino-7-(but-2-yn-1-yl)-9-((2R,3R,4R,5R)-3,4-dihydroxy-5-(hydroxymethyl)tetrahydrofuran-2-yl)-7,9-dihydro-1H-purine-6,8-dione] | 835 µM | 79 µM | – |
| Cn1c(=O)n([C@@H]2O[C@H](CO)[C@H](O)[C@H]2O)c2nc(N)[nH]c(=O)c21 [Compound 15, 2-Amino-9-((2R,3R,4R,5R)-3,4-dihydroxy-5-(hydroxymethyl)tetrahydrofuran-2-yl)-7-methyl-7,9-dihydro-1H-purine-6,8-dione] | > 500 µM | – | – |
| COC(=O)Cn1c(=O)n([C@@H]2O[C@H](CO)[C@H](O)[C@H]2O)c2nc(N)[nH]c(=O)c21 [Compound 12, Methyl 2-(2-amino-9-((2R,3R,4R,5R)-3,4-dihydroxy-5-(hydroxymethyl)tetrahydrofuran-2-yl)-6,8-dioxo-1,6,8,9-tetrahydro-7H-purin-7-yl)acetate] | 407 µM | >100* μM | – |
| Nc1nc2c(c(=O)[nH]1)n(C/C=C/C(=O)O)c(=O)n2[C@@H]1O[C@H](CO)[C@H](O)[C@H]1O [Compound 9, (E)-4-(2-Amino-9-((2R,3R,4R,5R)-3,4-dihydroxy-5-(hydroxymethyl)tetrahydrofuran-2-yl)-6,8-dioxo-1,6,8,9-tetrahydro-7H-purin-7-yl)but-2-enoic Acid] | 15 µM | >100* μM | – |
| CCCCn1c(=O)n([C@@H]2O[C@H](CO)[C@H](O)[C@H]2O)c2nc(N)[nH]c(=O)c21 [Compound 18, 2-Amino-7-butyl-9-((2R,3R,4R,5R)-3,4-dihydroxy-5-(hydroxymethyl)tetrahydrofuran-2-yl)-7,9-dihydro-1H-purine-6,8-dione] | 330 µM | less than or equal to 40 μM and 37 μM | < 100 µM |
| CCCCn1c(=O)n([C@@H]2O[C@H](CO)C[C@H]2O)c2nc(N)[nH]c(=O)c21 [Compound 37, 2-Amino-7-butyl-9-((2R,3R,5S)-3-hydroxy-5-(hydroxymethyl)tetrahydrofuran-2-yl)-7,9-dihydro-1H-purine-6,8-dione] | 564 µM | 50 µM | – |
| COCCn1c(=O)n([C@@H]2O[C@H](CO)[C@H](O)[C@H]2O)c2nc(N)[nH]c(=O)c21 [Compound 22, 2-Amino-9-((2R,3R,4R,5R)-3,4-dihydroxy-5-(hydroxymethyl)tetrahydrofuran-2-yl)-7-(2-methoxyethyl)-7,9-dihydro-1H-purine-6,8-dione] | 567 µM | >100* μM | – |
| Nc1nc2c(c(=O)[nH]1)n(Cc1cccc(F)c1)c(=O)n2[C@@H]1O[C@H](CO)C[C@H]1O [Compound 34, 2-Amino-7-(3-fluorobenzyl)-9-((2R,3R,5S)-3-hydroxy-5-(hydroxymethyl)tetrahydrofuran-2-yl)-7,9-dihydro-1H-purine-6,8-dione] | 512 µM | less than or equal to 40 μM and 40 μM | < 100 µM |
| C=CCn1c(=O)n([C@@H]2O[C@H](CO)C[C@H]2O)c2nc(N)[nH]c(=O)c21 [Compound 36, 7-Allyl-2-amino-9-((2R,3R,5S)-3-hydroxy-5-(hydroxymethyl)tetrahydrofuran-2-yl)-7,9-dihydro-1H-purine-6,8-dione] | 1210 µM | 100 µM | – |
| C=CCn1c(=O)n([C@@H]2O[C@H](CO)[C@H](O)[C@H]2O)c2nc(N)[nH]c(=O)c21 [Compound 2, 7-Allyl-2-amino-9-((2R,3R,4R,5R)-3,4-dihydroxy-5-(hydroxymethyl)tetrahydrofuran-2-yl)-7,9-dihydro-1H-purine-6,8-dione] | 298 µM | 79 µM | – |
| Nc1nc2c(c(=O)[nH]1)n(Cc1ccccc1)c(=O)n2[C@@H]1O[C@H](CO)C[C@H]1O [Compound 33, 2-Amino-7-benzyl-9-((2R,3R,5S)-3-hydroxy-5-(hydroxymethyl)tetrahydrofuran-2-yl)-7,9-dihydro-1H-purine-6,8-dione] | 688 µM | 79* μM | – |
| Nc1nc2c(c(=O)[nH]1)n(C/C=C/CO)c(=O)n2[C@@H]1O[C@H](CO)[C@H](O)[C@H]1O [Compound 8, 2-Amino-9-((2R,3R,4R,5R)-3,4-dihydroxy-5-(hydroxymethyl)tetrahydrofuran-2-yl)-7-((E)-4-hydroxybut-2-en-1-yl)-7,9-dihydro-1H-purine-6,8-dione] | 413 µM | >100* μM | – |
| NCCn1c(=O)n([C@@H]2O[C@H](CO)[C@H](O)[C@H]2O)c2nc(N)[nH]c(=O)c21 [Compound 23, 2-Amino-7-(2-aminoethyl)-9-((2R,3R,4R,5R)-3,4-dihydroxy-5-(hydroxymethyl)tetrahydrofuran-2-yl)-7,9-dihydro-1H-purine-6,8-dione hydrochloride] | > 500 µM | – | – |
